From patent US7816134B2, “Method of extensive culture of antigen-specific cytotoxic T cells” (Takara Bio Inc., priority 2000, dated 2010)
Like-named read-outs stand apart in the source and are kept apart here.

How the values were obtained:
[1] = test system: anti-influenza virus memory CTLs (FluMPA2.1); assay type: cell-based, human
[2] = test system: HLA-A2.1-having EBV transformed B-cells (221A2.1); conditions: for Cytotoxic Activity (%) E/T Ratio 1 / Cytotoxic Activity (%) E/T Ratio 3 / Cytotoxic Activity (%) E/T Ratio 10 / Cytotoxic Activity (%) E/T Ratio 2.5 / Cytotoxic Activity (%) E/T Ratio 5: FluMPA2.1; for Cytotoxic Activity (%) E/T Ratio 2.5 / Cytotoxic Activity (%) E/T Ratio 5: Example 1-4
[3] = test system: HLA-A2.1-having EBV transformed B-cells (221A2.1); conditions: for Cytotoxic Activity (%) E/T Ratio 3 / Cytotoxic Activity (%) E/T Ratio 10 / Cytotoxic Activity (%) E/T Ratio 1 / Cytotoxic Activity (%) E/T Ratio 30: FluMPA2.1
[4] = Example 2-6, sample during CTL induction −, during expansion + (10 μg/ml)
[5] = Example 1-2, sample 10 μg/ml during CTL induction +, during culture with IL-2 +, peptide addition +
[6] = Example 1-2, sample 10 μg/ml during CTL induction +, during culture with IL-2 +, peptide addition −
[7] = sample 10 μg/ml during CTL induction and during continuous culture, 10 to 14 days
[8] = Example 2-3, sample 10 μg/ml during CTL induction +, during expansion +, peptide addition +
[9] = Example 2-3, sample 10 μg/ml during CTL induction +, during expansion +, peptide addition −
[10] = Example 2-6, sample during CTL induction −, during expansion + (10 μg/ml), peptide addition +
[11] = Example 2-6, sample during CTL induction −, during expansion + (10 μg/ml), peptide addition −
[12] = Example 2-7, sample 10 μg/ml during CTL induction +, during expansion +, peptide addition +
[13] = Example 2-7, sample 10 μg/ml during CTL induction +, during expansion +, peptide addition −
[14] = Example 2-7, sample 10 μg/ml during CTL induction +, during expansion −, peptide addition +
[15] = Example 2-7, sample 10 μg/ml during CTL induction +, during expansion −, peptide addition −
[16] = Example 2-4, sample 10 μg/ml during CTL induction +, during expansion +
[17] = Example 1-3, sample 10 μg/ml during CTL induction +, during culture with IL-2 +, peptide addition +
[18] = Example 1-3, sample 10 μg/ml during CTL induction +, during culture with IL-2 +, peptide addition −
[19] = Example 1-5, sample during CTL induction −, during culture with IL-2 + (10 μg/ml), peptide addition +
[20] = Example 1-5, sample during CTL induction −, during culture with IL-2 + (10 μg/ml), peptide addition −
[21] = sample 10 μg/ml only during continuous culture
[22] = Example 2-4, sample 10 μg/ml during CTL induction +, during expansion +, peptide addition +
[23] = Example 2-4, sample 10 μg/ml during CTL induction +, during expansion +, peptide addition −
[24] = sample 10 μg/ml during CTL induction +, during culture with IL-2 +, peptide addition +
[25] = sample 10 μg/ml during CTL induction +, during culture with IL-2 +, peptide addition −

## CC1OC(OC2C(OC3C(OC4C(OS(=O)(=O)O)C(C)OC(O)C4OS(=O)(=O)O)OC(C)C(OS(=O)(=O)O)C3OC3OC(C)C(OS(=O)(=O)O)C(OS(=O)(=O)O)C3OS(=O)(=O)O)OC(C)C(OS(=O)(=O)O)C2OC2OC(C)C(OS(=O)(=O)O)C(OC3OC(C)C(OS(=O)(=O)O)C(O)C3OS(=O)(=O)O)C2OS(=O)(=O)O)C(O)C(OS(=O)(=O)O)C1O (stereo not shown) [7-12SFd-F]
[1]; Example 2-3, sample 10 μg/ml during CTL induction +, during expansion +, 14 days
  Expansion Ratio: × 178
[1]; [4]
  Expansion Ratio: × 310
[1]; Example 2-7, sample 10 μg/ml during CTL induction +, during expansion +
  Expansion Ratio: × 258
[1]; Example 2-7, sample 10 μg/ml during CTL induction +, during expansion −
  Expansion Ratio: × 283
[2]; [5]
  Cytotoxic Activity (%) E/T Ratio 1: 12.0%
  Cytotoxic Activity (%) E/T Ratio 3: 37.9%
  Cytotoxic Activity (%) E/T Ratio 10: 60.7%
[2]; [6]
  Cytotoxic Activity (%) E/T Ratio 1: 0.3%
  Cytotoxic Activity (%) E/T Ratio 3: 2.2%
  Cytotoxic Activity (%) E/T Ratio 10: 11.7%
[2]; [7]
  cytotoxic activity after continuous culture (in words): maintaining an antigen-specific cytotoxic activity
[3]; [8]
  Cytotoxic Activity (%) E/T Ratio 3: 67.0%
  Cytotoxic Activity (%) E/T Ratio 10: 93.7%
[3]; [9]
  Cytotoxic Activity (%) E/T Ratio 3: 2.8%
  Cytotoxic Activity (%) E/T Ratio 10: 0%
[3]; [10]
  Cytotoxic Activity (%) E/T Ratio 1: 14.1%
  Cytotoxic Activity (%) E/T Ratio 3: 20.1%
  Cytotoxic Activity (%) E/T Ratio 10: 41.7%
  Cytotoxic Activity (%) E/T Ratio 30: 64.6%
[3]; [11]
  Cytotoxic Activity (%) E/T Ratio 1: 2.7%
  Cytotoxic Activity (%) E/T Ratio 3: 0%
  Cytotoxic Activity (%) E/T Ratio 10: 1.0%
  Cytotoxic Activity (%) E/T Ratio 30: 3.5%
[3]; [12]
  Cytotoxic Activity (%) E/T Ratio 1: 9.4%
  Cytotoxic Activity (%) E/T Ratio 3: 23.4%
  Cytotoxic Activity (%) E/T Ratio 10: 44.2%
  Cytotoxic Activity (%) E/T Ratio 30: 82.1%
[3]; [13]
  Cytotoxic Activity (%) E/T Ratio 1: 0%
  Cytotoxic Activity (%) E/T Ratio 3: 0%
  Cytotoxic Activity (%) E/T Ratio 10: 0%
  Cytotoxic Activity (%) E/T Ratio 30: 1.6%
[3]; [14]
  Cytotoxic Activity (%) E/T Ratio 1: 14.0%
  Cytotoxic Activity (%) E/T Ratio 3: 34.6%
  Cytotoxic Activity (%) E/T Ratio 10: 50.4%
  Cytotoxic Activity (%) E/T Ratio 30: 83.5%
[3]; [15]
  Cytotoxic Activity (%) E/T Ratio 1: 6.7%
  Cytotoxic Activity (%) E/T Ratio 3: 6.5%
  Cytotoxic Activity (%) E/T Ratio 10: 9.3%
  Cytotoxic Activity (%) E/T Ratio 30: 9.8%
[3]; sample 10 μg/ml during CTL induction and during expansion, no EBV-B cells
  cytotoxic activity after expansion for 14 days (in words): maintained specific, high cytotoxic activity

## non-swellable alginic acid
[1]; [16]
  Expansion Ratio: × 220
[1]; [4]
  Expansion Ratio: × 335
[2]; [17]
  Cytotoxic Activity (%) E/T Ratio 1: 28.1%
  Cytotoxic Activity (%) E/T Ratio 3: 52.7%
  Cytotoxic Activity (%) E/T Ratio 10: 77.1%
[2]; [18]
  Cytotoxic Activity (%) E/T Ratio 1: 12.9%
  Cytotoxic Activity (%) E/T Ratio 3: 24.8%
  Cytotoxic Activity (%) E/T Ratio 10: 14.0%
[2]; [19]
  Cytotoxic Activity (%) E/T Ratio 1: 9.5%
  Cytotoxic Activity (%) E/T Ratio 3: 13.8%
  Cytotoxic Activity (%) E/T Ratio 10: 24.9%
[2]; [20]
  Cytotoxic Activity (%) E/T Ratio 1: 3.9%
  Cytotoxic Activity (%) E/T Ratio 3: 4.6%
  Cytotoxic Activity (%) E/T Ratio 10: 6.1%
[2]; [21]
  cytotoxic activity after continuous culture (in words): maintaining an antigen-specific cytotoxic activity
[3]; [22]
  Cytotoxic Activity (%) E/T Ratio 3: 63.5%
  Cytotoxic Activity (%) E/T Ratio 10: 81.4%
[3]; [23]
  Cytotoxic Activity (%) E/T Ratio 3: 26.2%
  Cytotoxic Activity (%) E/T Ratio 10: 26.8%
[3]; [10]
  Cytotoxic Activity (%) E/T Ratio 1: 13.5%
  Cytotoxic Activity (%) E/T Ratio 3: 24.1%
  Cytotoxic Activity (%) E/T Ratio 10: 50.4%
  Cytotoxic Activity (%) E/T Ratio 30: 76.0%
[3]; [11]
  Cytotoxic Activity (%) E/T Ratio 1: 0.5%
  Cytotoxic Activity (%) E/T Ratio 3: 5.2%
  Cytotoxic Activity (%) E/T Ratio 10: 6.5%
  Cytotoxic Activity (%) E/T Ratio 30: 14.4%

## pectic acid
[1]; [16]
  Expansion Ratio: × 160
[1]; [4]
  Expansion Ratio: × 350
[2]; [24]
  Cytotoxic Activity (%) E/T Ratio 2.5: 32.0%
  Cytotoxic Activity (%) E/T Ratio 5: 49.4%
[2]; [25]
  Cytotoxic Activity (%) E/T Ratio 2.5: 3.4%
  Cytotoxic Activity (%) E/T Ratio 5: 5.5%
[2]; [19]
  Cytotoxic Activity (%) E/T Ratio 10: 16.5%
[2]; [20]
  Cytotoxic Activity (%) E/T Ratio 10: 0%
[2]; [7]
  cytotoxic activity after continuous culture (in words): effects for maintaining cytotoxic activity
[2]; [21]
  cytotoxic activity after continuous culture (in words): maintaining an antigen-specific cytotoxic activity
[3]; [22]
  Cytotoxic Activity (%) E/T Ratio 3: 47.0%
  Cytotoxic Activity (%) E/T Ratio 10: 69.8%
[3]; [23]
  Cytotoxic Activity (%) E/T Ratio 3: 11.6%
  Cytotoxic Activity (%) E/T Ratio 10: 7.3%
[3]; [10]
  Cytotoxic Activity (%) E/T Ratio 1: 18.2%
  Cytotoxic Activity (%) E/T Ratio 3: 33.3%
  Cytotoxic Activity (%) E/T Ratio 10: 64.2%
  Cytotoxic Activity (%) E/T Ratio 30: 87.8%
[3]; [11]
  Cytotoxic Activity (%) E/T Ratio 1: 2.3%
  Cytotoxic Activity (%) E/T Ratio 3: 4.1%
  Cytotoxic Activity (%) E/T Ratio 10: 8.2%
  Cytotoxic Activity (%) E/T Ratio 30: 15.9%

## sodium chondroitin sulfate A
[1]; [16]
  Expansion Ratio: × 280
[1]; [4]
  Expansion Ratio: × 383
[2]; [17]
  Cytotoxic Activity (%) E/T Ratio 10: 75.5%
[2]; [18]
  Cytotoxic Activity (%) E/T Ratio 10: 21.1%
[2]; [7]
  cytotoxic activity after continuous culture (in words): continuous culture of CTLs having an antigen-specific cytotoxic activity can be carried out
[3]; [22]
  Cytotoxic Activity (%) E/T Ratio 3: 56.7%
  Cytotoxic Activity (%) E/T Ratio 10: 89.0%
[3]; [23]
  Cytotoxic Activity (%) E/T Ratio 3: 0%
  Cytotoxic Activity (%) E/T Ratio 10: 5.3%
[3]; [10]
  Cytotoxic Activity (%) E/T Ratio 1: 8.0%
  Cytotoxic Activity (%) E/T Ratio 3: 18.7%
  Cytotoxic Activity (%) E/T Ratio 10: 36.6%
  Cytotoxic Activity (%) E/T Ratio 30: 67.6%
[3]; [11]
  Cytotoxic Activity (%) E/T Ratio 1: 6.3%
  Cytotoxic Activity (%) E/T Ratio 3: 5.6%
  Cytotoxic Activity (%) E/T Ratio 10: 7.5%
  Cytotoxic Activity (%) E/T Ratio 30: 18.8%
